Data published in PubChem BioAssay AID1549 (Sanford-Burnham Center for Chemical Genomics, 2009).
Activity calls are given as the source filed them. How the calls were made is not given here.

Target: Influenza A virus M2 proton channel (A/TW/4845/1999 H1N1)
Test: M2 proton channel binding, NMR based, influenza A virus H1N1 strain (AID 1549)
Conditions: NMR binding screen, M2 protein

Structure (SMILES)	Kd
N=Cc1c(O)n(-c2cccc(Cl)c2)c(=O)[nH]c1=O	> 4 mM (inactive)
O=C(NCc1ccccc1)c1cnsn1	> 4 mM (inactive)
O=C(O)c1ccnn1-c1ccccc1	> 4 mM (inactive)
Cc1ccc(SCc2cc(=O)n3[nH]c(C)nc3n2)cc1	> 4 mM (inactive)
O=C(Nc1ccccc1C(F)(F)F)N1CCCCCC1	> 4 mM (inactive)
CSc1ccccc1NC(=O)c1cnccn1	> 4 mM (inactive)
OCc1ccc(OC(F)(F)F)cc1	> 4 mM (inactive)
CCCC(=O)N1CCSCC1	> 4 mM (inactive)
NCC(O)c1ccc(O)cc1 (stereo not drawn)	> 4 mM (inactive)
O=c1ccc2ccccc2o1	> 4 mM (inactive)
Cc1ccc(N2CCN(C(=O)c3ccccc3)CC2)c(C)c1	> 4 mM (inactive)
COc1cccc2c1CCC1=CC(=O)CC[C@@]12C	> 4 mM (inactive)
C[N+](C)(C)CC(=O)[O-]	> 4 mM (inactive)
O=C1C=CC2=C3c4cc(O)c(O)cc4C[C@@]3(O)COC2=C1	> 4 mM (inactive)
CCSc1nnc2[nH]c(=O)cc(C)n12	> 4 mM (inactive)
NN1C(=O)CSC1=Nc1ccccc1	> 4 mM (inactive)
Cc1cc(C)n2c(SCc3cccs3)nnc2n1	> 4 mM (inactive)
CSc1ncc(C(=O)O)n1Cc1ccccc1	> 4 mM (inactive)
CC1SC(=NC(=O)c2ccncc2)NC1=O (stereo not drawn)	> 4 mM (inactive)
Cc1c(N=CN2CCOCC2)c(=O)n(C)c(=O)n1C	> 4 mM (inactive)
O=C(Nc1ncccn1)c1cccc(F)c1	> 4 mM (inactive)
Fc1cccc(Cl)c1CN1CCCNCC1	> 4 mM (inactive)
COC(=O)c1ccc(N2CCCC2)nc1	> 4 mM (inactive)
COc1ccc2c(c1)=C(c1sc(N)nc1O)C(=O)N=2	> 4 mM (inactive)

Structure (SMILES)	Kd
COc1cc2c(cc1O)CCNC2C (stereo not drawn)	> 4 mM (inactive)
O=C(/C=C/c1ccccc1)NC1CCS(=O)(=O)C1 (stereo not drawn)	> 4 mM (inactive)
Nc1nnc(COc2cccc(C(F)(F)F)c2)s1	> 4 mM (inactive)
NC1=C([N+](=O)[O-])C(=O)c2ccccc21	> 4 mM (inactive)
C/C=C(\C)C(=O)O[C@@H]1c2c(ccc3ccc(=O)oc23)OC(C)(C)[C@@H]1OC(C)=O	> 4 mM (inactive)
NC(=O)CSc1nc2ccccc2o1	> 4 mM (inactive)
COc1cc(-c2nnc(NC(C)=O)o2)cc(OC)c1OC	> 4 mM (inactive)
COC(=O)Cc1cc(=O)n(-c2nc3ccccc3s2)[nH]1	> 4 mM (inactive)
Cc1cc(N2CCCC2=O)c(N)cc1N	> 4 mM (inactive)
NC(=O)C1CCN(C(=S)Nc2ccccc2)CC1	> 4 mM (inactive)
O=C(Cc1ccccc1)Nc1c[nH]c(=O)[nH]c1=O	> 4 mM (inactive)
Cc1cc(N2C(=O)CCC2=O)n(-c2ccccc2)n1	> 4 mM (inactive)
NC(=O)CS(=O)(=O)c1ccc(Cl)cc1	> 4 mM (inactive)
CC1(O)CC2C(CC1O)C2(C)C (stereo not drawn)	> 4 mM (inactive)
CC(=O)Cc1nsc(NC(=O)c2ccc(C)cc2)n1	> 4 mM (inactive)
Clc1ccc(-c2noc(CN3CCCC3)n2)cc1	> 4 mM (inactive)
C=C[C@@](C)(O)CCC1C(=C)C[C@H](O)C2C(C)(C)CCCC12C (stereo partly drawn)	> 4 mM (inactive)
COc1ccc(C(C)=O)c(OC)c1	> 4 mM (inactive)
NC(=O)C1CCN(c2ccc(Cl)nn2)CC1	> 4 mM (inactive)
Nc1cc(=O)[nH]c(=O)n1Cc1ccco1	> 4 mM (inactive)
O=C1CN(c2ccccc2)CC(=O)N1	> 4 mM (inactive)
CC(C)Oc1ccc(C2CC(=O)NNC2=O)cc1 (stereo not drawn)	> 4 mM (inactive)
CC(=O)O[C@@H]1C=C[C@@]2(C)C(C[C@@H](OC(C)=O)[C@@]3(C)C4=CC(=O)O[C@@H](c5ccoc5)[C@]4(C)CCC23)C1(C)C (stereo partly drawn)	> 4 mM (inactive)
CCOC(=O)Cn1cnc2sc3c(c2c1=O)CCC3	> 4 mM (inactive)

Structure (SMILES)	Kd
OC1CSc2ncnn2C1 (stereo not drawn)	> 4 mM (inactive)
c1ccc(Cc2nnc3sc(-c4cccnc4)nn23)cc1	> 4 mM (inactive)
COc1ccc(-c2oc3cc(O[C@H]4O[C@H](CO)[C@@H](O)[C@H](O)[C@H]4O)c(OC)c(O)c3c(=O)c2OC)cc1O	> 4 mM (inactive)
CP(C)(=O)CCC(=O)O	> 4 mM (inactive)
CC12OC(=O)CC3C(C)(C)[C@H](O)C=C[C@]3(C)C1CC[C@]1(C)C2=CC(=O)O[C@H]1c1ccoc1 (stereo partly drawn)	> 4 mM (inactive)
O=C1CCC(c2cccs2)=NN1	> 4 mM (inactive)
CN(C)C(=O)CCNS(=O)(=O)c1ccccc1	> 4 mM (inactive)
Cc1c(CO)cnn1-c1ccc(F)cc1	> 4 mM (inactive)
C=C[C@H]1CN2CC[C@H]1C[C@@H]2[C@H](O)c1ccnc2ccccc12	> 4 mM (inactive)
Cc1cc(C)nc(/N=C(/N)N2CCN(C)CC2)n1	> 4 mM (inactive)
COc1ccc(C(N)=O)cc1NC(C)=O	> 4 mM (inactive)
Cn1c(=O)n(CC(=O)N2CCOCC2)c2ccccc21	> 4 mM (inactive)
Cc1csc2nc(=O)c3ccccc3n12	> 4 mM (inactive)
C(=C\c1ccccc1)/C=N/n1cnnc1	> 4 mM (inactive)
CC(=O)Nc1ccc(-c2ccc3nncn3n2)cc1	> 4 mM (inactive)
COc1cc(CNC(=O)CCCC/C=C/C(C)C)ccc1O	> 4 mM (inactive)
COc1ccc(-c2cc(=O)c3c(OC(C)=O)cc(OC(C)=O)cc3o2)cc1	> 4 mM (inactive)
c1ccc(CSc2ncccn2)cc1	> 4 mM (inactive)
Cc1ccc(NC(=O)c2ccccc2)s1	> 4 mM (inactive)
CCC(/C=C/[C@@H](C)[C@H]1CCC2C3CC=C4C[C@@H](O)CC[C@]4(C)C3CC[C@@]21C)C(C)C (stereo partly drawn)	> 4 mM (inactive)
NCCCCN=C(N)N	> 4 mM (inactive)
CSc1ncnc2nc[nH]c12	> 4 mM (inactive)
Fc1ccc(-c2n[nH]c(=S)n2CC2CCCO2)cc1 (stereo not drawn)	> 4 mM (inactive)
O=C(c1ccccc1)c1cncc(Br)c1	> 4 mM (inactive)

Structure (SMILES)	Kd
C=C1C2CC[C@H]3[C@]4(C)C[C@H](OC5OC(CO)C(OS(=O)(=O)O)C(OS(=O)(=O)O)C5OC(=O)CC(C)C)C[C@@H](C(=O)O)[C@H]4CC[C@]3(C2)[C@H]1O (stereo partly drawn)	> 4 mM (inactive)
COc1cc([C@@H]2c3cc4c(cc3[C@H](OC(C)=O)[C@H]3COC(=O)[C@H]23)OCO4)cc(OC)c1OC	> 4 mM (inactive)
O=C1C2=C(SCCS2)C(=O)N1CCCO	> 4 mM (inactive)
Cc1ccc(NC(=O)CN2C(=O)CSC2=O)cc1	> 4 mM (inactive)
COc1c(F)c(F)c(-c2csc(N)n2)c(F)c1F	> 4 mM (inactive)
CC(=O)O[C@H]1CCC2(C)C3=C(CCC2C1(C)C)[C@]1(C)CCC(C(C)CCC=C(C)C)[C@@]1(C)CC3 (stereo partly drawn)	> 4 mM (inactive)
Oc1ccccc1-c1cc(C(F)(F)F)[nH]n1	> 4 mM (inactive)
OCc1sccc1-n1cccc1	> 4 mM (inactive)
CC(C)c1c(O)ccc2c1CCC1C(C)(C)CCC[C@]21C (stereo partly drawn)	> 4 mM (inactive)
O=C(O)Cc1noc2ccccc12	> 4 mM (inactive)
O=C(NCc1ccccn1)c1ccc(Br)s1	> 4 mM (inactive)
Cn1c(SCC(N)=O)nc2c1c(=O)[nH]c(=O)n2C	> 4 mM (inactive)
Cc1cc(C)nc(/N=C(/N)Nc2cccc(F)c2)n1	> 4 mM (inactive)
Cc1cc(N)n(C2CCOC(C)(C)C2)n1 (stereo not drawn)	> 4 mM (inactive)
O=C(O)CNS(=O)(=O)c1cccs1	> 4 mM (inactive)
CCc1ccc2oc(-c3cc(N)cc(C)c3O)nc2c1	> 4 mM (inactive)
Cc1ccc2cccc(OC(=O)N3CCCC3)c2n1	> 4 mM (inactive)
CCOC(=O)C1C(=O)C2CCN1CC2 (stereo not drawn)	> 4 mM (inactive)
O=C1NC(=S)N/C1=C\c1cccc([N+](=O)[O-])c1	> 4 mM (inactive)
OCCCc1nc2ccccc2[nH]1	> 4 mM (inactive)
NC(=O)C1CCN(C(=O)CN2CCc3ccccc32)CC1	> 4 mM (inactive)
CC1CCN(C(=O)c2ccc(NS(C)(=O)=O)cc2)CC1	> 4 mM (inactive)
O=S(=O)(Cc1ccccc1Cl)Nc1ccccn1	> 4 mM (inactive)
COc1cc(OC)cc(-c2nc(N)n[nH]2)c1	> 4 mM (inactive)

Structure (SMILES)	Kd
CC(=O)Nc1cc(N2C(=O)C=CC2=O)ccc1Cl	> 4 mM (inactive)
NC(=O)c1c(Cl)nsc1-c1ccccc1Cl	> 4 mM (inactive)
CC(C)NC(=S)N1CCN(S(C)(=O)=O)CC1	> 4 mM (inactive)
COc1c(O)cccc1O	> 4 mM (inactive)
O=C1CCc2ccccc2CN1	> 4 mM (inactive)
CN=C(C)c1c(O)n(C)c(=S)n(C)c1=O	> 4 mM (inactive)
O=C(O)Cn1cc(C(F)(F)F)ccc1=O	> 4 mM (inactive)
COc1ccccc1NC(=O)C1CCC(=O)N1 (stereo not drawn)	> 4 mM (inactive)
O=C(Nc1nccs1)c1cccnc1	> 4 mM (inactive)
CS(=O)(=O)N1CCC(C(=O)NC2CCCC2)CC1	> 4 mM (inactive)
NC(=O)c1c[nH]c2ccccc12	> 4 mM (inactive)
COc1cc(OC)c(-c2c(OC)cc(OC)cc2OC)c(OC)c1	> 4 mM (inactive)
O=C1C2CC=C(Cl)CC2C(=O)N1c1ccccc1O (stereo not drawn)	> 4 mM (inactive)
O=C(Nc1nnc(-c2ccncc2)o1)c1cccs1	> 4 mM (inactive)
O=C(CC1SC(=O)NC1=O)Nc1nccs1 (stereo not drawn)	> 4 mM (inactive)
COc1ccc(C(N)=O)cc1N	> 4 mM (inactive)
CCOc1cc(C)c(Cl)cc1S(=O)(=O)N(C)C	> 4 mM (inactive)
S=C(CN1CCCC1=S)N1CCOCC1	> 4 mM (inactive)
OC[C@H]1O[C@@](CO)(O[C@@H]2O[C@H](CO)[C@@H](O)[C@H](O)[C@H]2O)[C@@H](O[C@@H]2O[C@H](CO)[C@@H](O)[C@H](O)[C@H]2O)[C@@H]1O	> 4 mM (inactive)
CSc1n[nH]c(NCc2ccccc2)n1	> 4 mM (inactive)
O=C1OC(N2CCOCC2)c2ccccc21 (stereo not drawn)	> 4 mM (inactive)
Cc1nc2ccccc2c(=O)n1/N=C/c1ccncc1	> 4 mM (inactive)
